Drawing on patent US9908868B2, “Isoindolinone compounds as GPR119 modulators for the treatment of diabetes, obesity, dyslipidemia and related disorders” (SANOFI, priority 2014, dated 2018), this text covers EC50 for 25 compounds.

For this assay, the target named is T1, human GPR119 (Homo sapiens, UniProt Q8TDV5).
T1 construct: expressed in transfected cells
T1 sequence (Q8TDV5 1-335): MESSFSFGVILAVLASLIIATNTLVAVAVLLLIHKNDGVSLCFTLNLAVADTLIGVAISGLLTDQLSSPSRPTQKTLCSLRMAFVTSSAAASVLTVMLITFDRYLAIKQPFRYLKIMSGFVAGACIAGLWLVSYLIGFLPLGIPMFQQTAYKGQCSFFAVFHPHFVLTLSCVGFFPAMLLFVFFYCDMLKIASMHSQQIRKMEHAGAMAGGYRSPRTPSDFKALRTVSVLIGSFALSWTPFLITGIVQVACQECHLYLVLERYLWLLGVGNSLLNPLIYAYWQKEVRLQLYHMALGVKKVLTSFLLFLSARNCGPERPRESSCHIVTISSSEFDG
Nature of the assay: Functional cellular assay measuring GPR119-mediated cAMP release (HTRF) in HEK-293 cells stably expressing recombinant human GPR119. It counts as cell-based. The following applies: cAMP response, cell line expressing human GPR119, 30 minutes at room temperature. Here is the method: Functional Cellular Assays Measuring GPR119-Mediated cAMP Release
Compounds of the invention, which are agonists of GPR119, were characterized by functional assays measuring the cAMP response of HEK-293 cell lines stably expressing recombinant GPR119 from man, mouse or rat, or by using a hamster cell line HIT-T15 expressing GPR119 endogenously. The cAMP content was determined using a kit based on homogenous time-resolved fluorescence (HTRF) from Cisbio Corp. (cat. no. 62AM4PEC). For preparation, cells were split into T175 culture flasks and grown to near confluency in medium (DMEM/10% FCS for HEK-293 cells, and F-12K medium/10% horse serum/2.5% FCS for HIT-T15 cells, respectively). Medium was then removed and cells washed with PBS lacking calcium and magnesium ions, followed by proteinase treatment with accutase (Sigma-Aldrich, cat. no. A6964). Detached cells were washed and resuspended in assay buffer (1×HBSS; 20 mM HEPES, 0.1% BSA, 2 mM IBMX) and cellular density determined. They were then diluted to 400000 cells/mL and 25 μL-aliquots dispensed to the wells of 96-well plates. For measurement, 25 μL of test compound in assay buffer was added and incubated for 30 minutes at room temperature. After addition of HTRF reagents diluted in lysis buffer, the plates were incubated for 1 hour, followed by measuring the fluorescence ratio at 665 vs. 620 nm. Potency of the agonists was quantified by determining the concentrations that caused 50% of the maximal response/activation (EC50). See Table 7 for exemplary data obtained using the cell line expressing human GPR119.
(In general: TR-FRET usually uses a lanthanide donor and a delayed reading to cut background.)

Broadly, the EC50 is the concentration at which the effect is half-maximal. On to `CS(=O)(=O)CN1Cc2ccc(N3CC[C@@H](Oc4ccc(Oc5ccc(F)cc5)nc4)C3=O)cc2C1=O` [Example 1-53, 6-[(3R)-3-[[6-(4-fluorophenoxy)-3-pyridyl]oxy]-2-oxo-pyrrolidin-1-yl]-2-(methylsulfonylmethyl)isoindolin-1-one], for which the EC50 stood at 98 nM. Next, `C[S+]([O-])CN1Cc2ccc(N3CC[C@@H](Oc4ccc(OCC(F)(F)F)nc4)C3=O)cc2C1=O` (stereo partly drawn) [Example 1-54, 2-(methylsulfinylmethyl)-6-[(3R)-2-oxo-3-[[6-(2,2,2-trifluoroethoxy)-3-pyridyl]oxy]pyrrolidin-1-yl]isoindolin-1-one]: 66 nM. With `C[S+]([O-])CN1Cc2ncc(N3CC[C@@H](Oc4ccc(Oc5ccc(F)cc5)nc4)C3=O)cc2C1=O` (stereo partly drawn) [Example 1-55, 3-[(3R)-3-[[6-(4-fluorophenoxy)-3-pyridyl]oxy]-2-oxo-pyrrolidin-1-yl]-6-(methylsulfinylmethyl)-7H-pyrrolo[3,4-b]pyridin-5-one], the EC50 was found to be 106 nM.

In the case of `NC(=O)CN1Cc2ccc(N3CC[C@@H](Oc4ccc(OCC(F)(F)F)nc4)C3=O)cc2C1=O` [Example 1-56, 2-[1-oxo-6-[(3R)-2-oxo-3-[[6-(2,2,2-trifluoroethoxy)-3-pyridyl]oxy]pyrrolidin-1-yl]isoindolin-2-yl]acetamide], the EC50 is 51 nM. Next, `C[S+]([O-])CN1Cc2ncc(N3CC[C@@H](Oc4ccc(C(=O)C5CC5)nc4)C3=O)cc2C1=O` (stereo partly drawn) [Example 1-57, 3-[(3R)-3-[[6-(cyclopropanecarbonyl)-3-pyridyl]oxy]-2-oxo-pyrrolidin-1-yl]-6-(methylsulfinylmethyl)-7H-pyrrolo[3,4-b]pyridin-5-one]: 1120 nM; `C[S+]([O-])CN1Cc2ccc(N3CC[C@@H](Oc4ccc(C(=O)C5CC5)nc4)C3=O)cc2C1=O` (stereo partly drawn) [Example 1-58, 6-[(3R)-3-[[6-(cyclopropanecarbonyl)-3-pyridyl]oxy]-2-oxo-pyrrolidin-1-yl]-2-(methylsulfinylmethyl)isoindolin-1-one]: 680 nM. As for `CS(=O)(=O)CN1Cc2ccc(N3CC[C@@H](Oc4ccc(C(=O)C5CC5)nc4)C3=O)cc2C1=O` [Example 1-59, 6-[(3R)-3-[[6-(cyclopropanecarbonyl)-3-pyridyl]oxy]-2-oxo-pyrrolidin-1-yl]-2-(methylsulfonylmethyl)isoindolin-1-one], the EC50 worked out at 451 nM. Next, `C[S+]([O-])CN1Cc2ccc(N3CC[C@@H](Oc4ccc(C(=O)C5CC5)cc4)C3=O)cc2C1=O` (stereo partly drawn) [Example 1-60, 6-[(3R)-3-[4-(cyclopropanecarbonyl)phenoxy]-2-oxo-pyrrolidin-1-yl]-2-(methylsulfinylmethyl)isoindolin-1-one]: 147 nM; `C[S+]([O-])CN1Cc2ncc(N3CC[C@@H](Oc4ccc(C(=O)C5CC5)cc4)C3=O)cc2C1=O` (stereo partly drawn) [Example 1-61, 3-[(3R)-3-[4-(cyclopropanecarbonyl)phenoxy]-2-oxo-pyrrolidin-1-yl]-6-(methylsulfinylmethyl)-7H-pyrrolo[3,4-b]pyridin-5-one]: 516 nM. For the compound `CS(=O)(=O)CN1Cc2ncc(N3CC[C@@H](Oc4ccc(C(=O)C5CC5)cc4)C3=O)cc2C1=O` [Example 1-62, 3-[(3R)-3-[4-(cyclopropanecarbonyl)phenoxy]-2-oxo-pyrrolidin-1-yl]-6-(methylsulfonylmethyl)-7H-pyrrolo[3,4-b]pyridin-5-one], the EC50 was 139 nM.

With `C[S+]([O-])CN1Cc2ncc(N3CC[C@@H](Oc4ccc(OCC(F)(F)F)nc4)C3=O)cc2C1=O` (stereo partly drawn) [Example 1-63, 6-(methylsulfinylmethyl)-3-[(3R)-2-oxo-3-[[6-(2,2,2-trifluoroethoxy)-3-pyridyl]oxy]pyrrolidin-1-yl]-7H-pyrrolo[3,4-b]pyridin-5-one], the EC50 amounted to 104 nM. Take `CCOC(=O)CN1Cc2ccc(N3CC[C@@H](Oc4ccc(OCC(F)(F)F)nc4)C3=O)cc2C1=O` [Example 1-64, ethyl 2-[1-oxo-6-[(3R)-2-oxo-3-[[6-(2,2,2-trifluoroethoxy)-3-pyridyl]oxy]pyrrolidin-1-yl]isoindolin-2-yl]acetate]: the EC50 came out at 27 nM. Turning to `COC(=O)CN1Cc2ccc(N3CC[C@@H](Oc4ccc(OCC(F)(F)F)nc4)C3=O)cc2C1=O` [Example 1-65, methyl 2-[1-oxo-6-[(3R)-2-oxo-3-[[6-(2,2,2-trifluoroethoxy)-3-pyridyl]oxy]pyrrolidin-1-yl]isoindolin-2-yl]acetate], the EC50 turned out to be 52 nM. For `CS(=O)(=O)CN1Cc2ncc(N3CC[C@@H](Oc4ccc(Oc5ccc(F)cc5)nc4)C3=O)cc2C1=O` [Example 1-66, 3-[(3R)-3-[[6-(4-fluorophenoxy)-3-pyridyl]oxy]-2-oxo-pyrrolidin-1-yl]-6-(methylsulfonylmethyl)-7H-pyrrolo[3,4-b]pyridin-5-one] the value was 163 nM; for `CS(=O)(=O)CN1Cc2ncc(N3CC[C@@H](Oc4ccc(OCC(F)(F)F)nc4)C3=O)cc2C1=O` [Example 1-67, 6-(methylsulfonylmethyl)-3-[(3R)-2-oxo-3-[[6-(2,2,2-trifluoroethoxy)-3-pyridyl]oxy]pyrrolidin-1-yl]-7H-pyrrolo[3,4-b]pyridin-5-one], 81 nM; for `C[S@+]([O-])CN1Cc2ncc(N3CC[C@@H](Oc4ccc(OCC(F)(F)F)nc4)C3=O)cc2C1=O` [Example 1-68, 6-((S)-methanesulfinylmethyl)-3-{(R)-2-oxo-3-[6-(2,2,2-trifluoro-ethoxy)-pyridin-3-yloxy]-pyrrolidin-1-yl}-6,7-dihydro-pyrrolo[3,4-b]pyridin-5-one], 143 nM. With `C[S@@+]([O-])CN1Cc2ncc(N3CC[C@@H](Oc4ccc(OCC(F)(F)F)nc4)C3=O)cc2C1=O` [Example 1-69, 6-((R)-methanesulfinylmethyl)-3-{(R)-2-oxo-3-[6-(2,2,2-trifluoro-ethoxy)-pyridin-3-yloxy]-pyrrolidin-1-yl}-6,7-dihydro-pyrrolo[3,4-b]pyridin-5-one], the EC50 turned out to be 131 nM. Next, `CN(C)C(=O)CN1Cc2ccc(N3CC[C@@H](Oc4ccc(OC(F)(F)F)cc4)C3=O)cc2C1=O` [Example 2-01, N,N-dimethyl-2-[1-oxo-6-[(3R)-2-oxo-3-[4-(trifluoromethoxy)phenoxy]pyrrolidin-1-yl]isoindolin-2-yl]acetamide]: 106 nM; `CN(C)C(=O)CN1Cc2ccc(N3CC[C@@H](Oc4ccc(CCCC5CC5)nc4)C3=O)cc2C1=O` [Example 2-02, 2-[6-[(3R)-3-[[6-(3-cyclopropylpropyl)-3-pyridyl]oxy]-2-oxo-pyrrolidin-1-yl]-1-oxo-isoindolin-2-yl]-N,N-dimethyl-acetamide]: 56 nM; `CN(C)C(=O)CN1Cc2ccc(N3CC[C@@H](Oc4ccc(O[C@H]5C[C@@H]6C[C@@H]6C5)nc4)C3=O)cc2C1=O` [Example 2-03, 2-[6-[(3R)-3-[[6-[[(1S,5R)-3-bicyclo[3.1.0]hexanyl]oxy]-3-pyridyl]oxy]-2-oxo-pyrrolidin-1-yl]-1-oxo-isoindolin-2-yl]-N,N-dimethyl-acetamide]: 54 nM. Take `CN(C)C(=O)CN1Cc2ccc(N3CC[C@@H](Oc4ccc(CCC5CC5)nc4)C3=O)cc2C1=O` [Example 2-04, 2-[6-[(3R)-3-[[6-(2-cyclopropylethyl)-3-pyridyl]oxy]-2-oxo-pyrrolidin-1-yl]-1-oxo-isoindolin-2-yl]-N,N-dimethyl-acetamide]: the EC50 came out at 156 nM.

For the compound `CN(C)C(=O)CN1Cc2ccc(N3CC[C@@H](Oc4ccc(OCC(F)(F)F)nc4)C3=O)cc2C1=O` [Example 2-05, N,N-dimethyl-2-[1-oxo-6-[(3R)-2-oxo-3-[[6-(2,2,2-trifluoroethoxy)-3-pyridyl]oxy]pyrrolidin-1-yl]isoindolin-2-yl]acetamide], the EC50 worked out at 62 nM.

`CN(C)C(=O)CN1Cc2ccc(N3CC[C@@H](Oc4cnc(OCC5CC5)c(F)c4)C3=O)cc2C1=O` [Example 2-06, 2-[6-[(3R)-3-[[6-(cyclopropylmethoxy)-5-fluoro-3-pyridyl]oxy]-2-oxo-pyrrolidin-1-yl]-1-oxo-isoindolin-2-yl]-N,N-dimethyl-acetamide]: the EC50 was 82 nM. `Cc1cc(O[C@@H]2CCN(c3ccc4c(c3)C(=O)N(CC(=O)N(C)C)C4)C2=O)cnc1OCC1CC1` [Example 2-07, 2-[6-[(3R)-3-[[6-(cyclopropylmethoxy)-5-methyl-3-pyridyl]oxy]-2-oxo-pyrrolidin-1-yl]-1-oxo-isoindolin-2-yl]-N,N-dimethyl-acetamide]: the EC50 is 115 nM. For `CN(C)C(=O)CN1Cc2ccc(N3CC[C@@H](Oc4ccc(NCC5CC5)nc4)C3=O)cc2C1=O` [Example 2-08, 2-[6-[(3R)-3-[[6-(cyclopropylmethylamino)-3-pyridyl]oxy]-2-oxo-pyrrolidin-1-yl]-1-oxo-isoindolin-2-yl]-N,N-dimethyl-acetamide] the value was 2120 nM.
